Test results as given in the NIST ThermoML archive (doi:10.1021/acs.jced.8b00037).
± gives the expanded uncertainty stated by the source.

Test: molar heat capacity at constant volume
Conditions: Liquid, Vacuum adiabatic calorimetry

COC [dimethyl ether]
Conditions | molar heat capacity at constant volume [J/K/mol]
157.53 K, 4013 kPa | 69.69 ± 0.52
159.72 K, 8322 kPa | 69.6 ± 0.52
161.9 K, 12544 kPa | 69.78 ± 0.52
164.07 K, 16672 kPa | 69.67 ± 0.52
166.23 K, 20708 kPa | 69.85 ± 0.52
168.38 K, 24704 kPa | 69.65 ± 0.52
170.51 K, 28650 kPa | 69.79 ± 0.52
172.64 K, 32529 kPa | 70.05 ± 0.53
176.39 K, 3776 kPa | 68.85 ± 0.52
178.57 K, 7593 kPa | 68.76 ± 0.52
180.74 K, 11350 kPa | 68.76 ± 0.52
182.9 K, 15062 kPa | 68.62 ± 0.52
185.05 K, 18718 kPa | 68.78 ± 0.52
187.2 K, 22325 kPa | 68.84 ± 0.52
189.34 K, 25885 kPa | 68.95 ± 0.52
191.46 K, 29382 kPa | 69 ± 0.52
193.58 K, 32823 kPa | 69.21 ± 0.52
200.6 K, 3313 kPa | 68.02 ± 0.51
202.77 K, 6569 kPa | 67.99 ± 0.51
204.93 K, 9792 kPa | 67.7 ± 0.51
207.08 K, 12969 kPa | 68.02 ± 0.51
209.23 K, 16115 kPa | 68 ± 0.51
211.37 K, 19219 kPa | 68.42 ± 0.52
213.5 K, 22288 kPa | 68.53 ± 0.52
215.62 K, 25311 kPa | 68.58 ± 0.52
217.74 K, 28297 kPa | 69.12 ± 0.52
219.85 K, 31246 kPa | 69 ± 0.52
223.34 K, 2896 kPa | 67.94 ± 0.51
225.51 K, 5714 kPa | 67.91 ± 0.51
227.67 K, 8494 kPa | 68.08 ± 0.51
229.82 K, 11254 kPa | 68.44 ± 0.52
231.97 K, 13976 kPa | 68.41 ± 0.52
234.11 K, 16676 kPa | 68.64 ± 0.52
236.24 K, 19342 kPa | 68.9 ± 0.52
238.36 K, 21979 kPa | 68.71 ± 0.52
240.48 K, 24585 kPa | 68.77 ± 0.52
242.59 K, 27158 kPa | 69.15 ± 0.52
244.69 K, 29702 kPa | 69.45 ± 0.52
245.08 K, 2602 kPa | 68.32 ± 0.51
246.78 K, 32213 kPa | 69.76 ± 0.52
247.24 K, 5030 kPa | 68.61 ± 0.52
249.4 K, 7443 kPa | 68.82 ± 0.52
251.55 K, 9828 kPa | 69.15 ± 0.52
253.7 K, 12195 kPa | 69.1 ± 0.52
255.84 K, 14539 kPa | 69.14 ± 0.52
257.97 K, 16865 kPa | 69.11 ± 0.52
260.09 K, 19157 kPa | 69.43 ± 0.52
261.13 K, 2479 kPa | 69.34 ± 0.52
262.21 K, 21436 kPa | 69.63 ± 0.52
263.3 K, 4661 kPa | 69.49 ± 0.52
264.32 K, 23690 kPa | 69.84 ± 0.52
265.47 K, 6829 kPa | 69.28 ± 0.52
266.43 K, 25920 kPa | 69.92 ± 0.53
267.63 K, 8973 kPa | 69.82 ± 0.52
268.52 K, 28128 kPa | 69.96 ± 0.53
269.79 K, 11103 kPa | 69.61 ± 0.52
270.62 K, 30316 kPa | 69.95 ± 0.53
271.93 K, 13210 kPa | 69.63 ± 0.52
272.69 K, 32476 kPa | 70.7 ± 0.53
274.07 K, 15304 kPa | 70.14 ± 0.53
276.21 K, 17379 kPa | 70.25 ± 0.53
278.33 K, 19435 kPa | 70.27 ± 0.53
279.17 K, 2674 kPa | 69.72 ± 0.52
280.45 K, 21472 kPa | 70.38 ± 0.53
281.36 K, 4596 kPa | 69.98 ± 0.53
282.56 K, 23487 kPa | 70.94 ± 0.53
283.54 K, 6506 kPa | 69.97 ± 0.53
284.67 K, 25491 kPa | 70.96 ± 0.53
285.71 K, 8399 kPa | 70.42 ± 0.53
286.77 K, 27476 kPa | 70.72 ± 0.53
287.87 K, 10279 kPa | 70.77 ± 0.53
288.86 K, 29439 kPa | 71.64 ± 0.54
290.03 K, 12145 kPa | 71.02 ± 0.53
290.95 K, 31396 kPa | 71.89 ± 0.54
292.18 K, 14000 kPa | 71.24 ± 0.53
293.04 K, 33333 kPa | 71.85 ± 0.54
294.33 K, 15843 kPa | 71.24 ± 0.53
296.47 K, 17674 kPa | 70.96 ± 0.53
298.61 K, 19489 kPa | 71.48 ± 0.54
300.73 K, 2646 kPa | 71.27 ± 0.53
300.75 K, 21296 kPa | 71.95 ± 0.54
302.88 K, 23091 kPa | 71.44 ± 0.54
302.96 K, 4292 kPa | 71.08 ± 0.53
305.01 K, 24872 kPa | 71.85 ± 0.54
305.18 K, 5930 kPa | 71.96 ± 0.54
307.14 K, 26644 kPa | 72.77 ± 0.54
307.41 K, 7569 kPa | 72.11 ± 0.54
309.27 K, 28409 kPa | 73.16 ± 0.55
309.62 K, 9196 kPa | 71.88 ± 0.54
311.39 K, 30163 kPa | 72.97 ± 0.55
311.84 K, 10814 kPa | 72.56 ± 0.54
313.52 K, 31911 kPa | 73.2 ± 0.55
314.06 K, 12436 kPa | 72.39 ± 0.54
315.65 K, 33651 kPa | 73 ± 0.55
316.28 K, 14048 kPa | 72.58 ± 0.54
318.5 K, 15656 kPa | 72.87 ± 0.55
320.54 K, 2597 kPa | 72.71 ± 0.54
320.74 K, 17265 kPa | 73.03 ± 0.55
322.97 K, 18872 kPa | 73.22 ± 0.55
323.02 K, 4128 kPa | 72.98 ± 0.55
325.22 K, 20482 kPa | 73.26 ± 0.55
325.5 K, 5662 kPa | 73.54 ± 0.55
327.49 K, 22098 kPa | 73.84 ± 0.55
328.01 K, 7206 kPa | 73.45 ± 0.55
329.78 K, 23723 kPa | 73.46 ± 0.55
330.53 K, 8756 kPa | 73.25 ± 0.55
332.09 K, 25355 kPa | 73.79 ± 0.55
333.07 K, 10311 kPa | 73.52 ± 0.55
334.44 K, 27002 kPa | 74.11 ± 0.55
335.63 K, 11877 kPa | 73.69 ± 0.55
336.81 K, 28665 kPa | 74.55 ± 0.56
338.21 K, 13448 kPa | 74.18 ± 0.55
339.21 K, 30343 kPa | 75.43 ± 0.56
340.82 K, 15034 kPa | 74.59 ± 0.56
341.66 K, 32044 kPa | 75.07 ± 0.56
343.45 K, 16629 kPa | 74.42 ± 0.56
344.14 K, 33761 kPa | 74.99 ± 0.56
